How the values were obtained:
Test in all cases: relative viability (nuclei count vs DMSO), 5 days (fraction); higher = more cells survive
[1] = compound: NS(=O)(=O)OC[C@@H]1C[C@@H](n2ccc3c(N[C@H]4CCc5ccccc54)ncnc32)C[C@@H]1O [MLN4924] + CC1(C)CCC(c2ccc(Cl)cc2)=C(CN2CCN(c3ccc(C(=O)NS(=O)(=O)c4ccc(N[C@H](CCN5CCOCC5)CSc5ccccc5)c(S(=O)(=O)C(F)(F)F)c4)cc3)CC2)C1 [Navitoclax] (partner 0.5 µM)
Method in brief: (§1)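 Lung cancer cell lines in 1536-well plates got either a single drug or a fixed anchor-drug dose together with five library-drug doses (not always all listed) in √10 steps, by pin tool, on the day after seeding. Nuclei were counted after 5 days, and relative viability is the treated-to-vehicle ratio of nuclei counts. Values are medians of duplicate plates.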

[2] = compound: NS(=O)(=O)OC[C@@H]1C[C@@H](n2ccc3c(N[C@H]4CCc5ccccc54)ncnc32)C[C@@H]1O [MLN4924] + COc1cc2c(Oc3ccc(NC(=O)C4(C(=O)Nc5ccc(F)cc5)CC4)cc3F)ccnc2cc1OCCCN1CCOCC1 [Foretinib] (partner 0.25 µM)
Method in brief: as §1

[3] = compound: NS(=O)(=O)OC[C@@H]1C[C@@H](n2ccc3c(N[C@H]4CCc5ccccc54)ncnc32)C[C@@H]1O [MLN4924] + Cc1nc(Nc2ncc(C(=O)Nc3c(C)cccc3Cl)s2)cc(N2CCN(CCO)CC2)n1 [Dasatinib] (partner 0.075 µM)
Method in brief: as §1

[4] = compound: NS(=O)(=O)OC[C@@H]1C[C@@H](n2ccc3c(N[C@H]4CCc5ccccc54)ncnc32)C[C@@H]1O [MLN4924] + Nc1nc2[nH]cc(CCc3ccc(C(=O)N[C@@H](CCC(=O)O)C(=O)O)cc3)c2c(=O)[nH]1 [Pemetrexed] (partner 0.2 µM)
Method in brief: as §1

Row | Cell Line | relative viability ([1]; first compound 0.04 µM) | relative viability ([1]; first compound 0.1265 µM) | relative viability ([1]; first compound 0.4 µM) | relative viability ([1]; first compound 1.265 µM) | relative viability ([1]; first compound 4 µM) | relative viability ([2]; first compound 0.04 µM) | relative viability ([2]; first compound 0.1265 µM) | relative viability ([2]; first compound 0.4 µM) | relative viability ([2]; first compound 1.265 µM) | relative viability ([2]; first compound 4 µM) | relative viability ([3]; first compound 0.04 µM) | relative viability ([3]; first compound 0.1265 µM) | relative viability ([3]; first compound 0.4 µM) | relative viability ([3]; first compound 1.265 µM) | relative viability ([3]; first compound 4 µM) | relative viability ([4]; first compound 0.04 µM) | relative viability ([4]; first compound 0.1265 µM) | relative viability ([4]; first compound 0.4 µM) | relative viability ([4]; first compound 1.265 µM) | relative viability ([4]; first compound 4 µM)
1 | NCI-H2023 | 1 | 0.758 | 0.362 | 0.109 | 0.0667 | 0.987 | 0.719 | 0.406 | 0.0781 | 0.0729 | 0.618 | 0.602 | 0.325 | 0.0611 | 0.0616 | 0.219 | 0.234 | 0.123 | 0.0635 | 0.09
2 | NCI-H2085 | 1.25 | 1.1 | 1.12 | 0.733 | 0.366 | 1.04 | 0.855 | 0.809 | 0.655 | 0.401 | 0.215 | 0.226 | 0.339 | 0.393 | 0.292 | 0.916 | 0.91 | 0.888 | 0.882 | 0.451
3 | NCI-H2087 | 0.923 | 0.682 | 0.379 | 0.177 | 0.132 | 1.13 | 0.669 | 0.419 | 0.107 | 0.0968 | 0.742 | 0.574 | 0.533 | 0.126 | 0.0652 | 0.639 | 0.71 | 0.562 | 0.118 | 0.0987
4 | NCI-H2126 | 0.764 | 0.742 | 0.621 | 0.386 | 0.446 | 1.14 | 0.87 | 1.08 | 0.335 | 0.267 | 0.647 | 0.617 | 0.55 | 0.201 | 0.23 | 0.659 | 0.676 | 0.435 | 0.278 | 0.281
5 | NCI-H2170 | 0.709 | 0.313 | 0.34 | 0.144 | 0.164 | 1.02 | 0.277 | 0.28 | 0.199 | 0.227 | 0.866 | 0.767 | 0.264 | 0.127 | 0.129 | 0.275 | 0.311 | 0.271 | 0.129 | 0.135
6 | NCI-H2228 |  | 1.03 | 0.221 | 0.135 | 0.155 | 1.07 | 0.69 | 0.512 | 0.302 | 0.147 | 0.524 | 0.638 | 0.14 | 0.107 | 0.11 | 0.377 | 0.32 | 0.213 | 0.0983 | 0.119
7 | NCI-H2347 | 0.676 | 0.677 | 0.44 | 0.305 | 0.369 | 0.832 | 0.906 | 0.567 | 0.528 | 0.402 | 0.265 | 0.369 | 0.231 | 0.218 | 0.244 | 0.376 | 0.438 | 0.369 | 0.396 | 0.36
8 | NCI-H2405 | 0.874 | 0.702 | 0.273 | 0.13 | 0.171 | 1.08 | 0.928 | 0.76 | 0.319 | 0.293 | 0.39 | 0.491 | 0.428 | 0.242 | 0.205 | 0.806 | 0.863 | 0.44 | 0.187 | 0.193
9 | NCI-H3122 | 0.929 | 0.448 | 0.262 | 0.171 | 0.164 | 0.903 | 0.385 | 0.232 | 0.106 | 0.0762 | 0.148 | 0.487 | 0.147 | 0.056 | 0.071 | 0.202 | 0.219 | 0.17 | 0.155 | 0.138
10 | PC-3 [JPC-3] | 0.785 | 0.788 | 0.66 | 0.321 | 0.419 | 1.05 | 0.976 | 0.688 | 0.375 | 0.293 | 1.04 | 1.09 | 0.897 | 0.36 | 0.27 | 1.1 | 1.26 | 0.288 | 0.311 | 0.377
11 | PC-14 | 0.997 | 0.788 | 0.593 | 0.13 | 0.0891 | 1.1 | 0.852 | 0.43 | 0.174 | 0.139 | 0.304 | 0.294 | 0.195 | 0.0356 | 0.0313 | 0.157 | 0.128 | 0.0989 | 0.0654 | 0.0612
12 | RERF-LC-KJ | 0.855 | 0.569 | 0.229 | 0.177 | 0.209 | 0.745 | 0.482 | 0.247 | 0.202 | 0.216 | 0.717 | 0.661 | 0.266 | 0.206 | 0.242 | 0.523 | 0.426 | 0.18 | 0.208 | 0.224
13 | SK-LU-1 | 0.737 | 0.618 | 0.175 | 0.127 | 0.167 | 0.924 | 0.615 | 0.26 | 0.14 | 0.174 | 0.217 | 0.249 | 0.12 | 0.117 | 0.141 | 0.94 | 0.829 | 0.26 | 0.194 | 0.212
14 | SK-MES-1 | 1.04 | 1.04 | 0.62 | 0.199 | 0.166 | 1.11 | 1.11 | 0.646 | 0.213 | 0.239 | 0.584 | 0.626 | 0.256 | 0.121 | 0.147 | 0.968 | 0.87 | 0.415 | 0.227 | 0.247
15 | SW 1573 | 0.887 | 1.12 | 0.439 | 0.0613 | 0.0532 | 0.967 | 0.982 | 0.875 | 0.156 | 0.0921 | 0.697 | 0.634 | 0.247 | 0.0507 | 0.0578 | 0.899 | 0.901 | 0.249 | 0.0884 | 0.0765

Reference: the supplement of paper PMC10307832
